In brackets after ≈: the same amount, converted by molar mass.
Test system: P388
Assay: Cytotoxicity against mouse P388 cells
Assay type: functional
Conditions: read-out: ED50 (the source's name)

SMILES | EC50 [µg/mL]
CCCCCC[C@@H](C)/C=C(C)/C=C/C(=O)N[C@@H](Cc1ccc(O)cc1)C(=O)OC [GYMNASTATIN H] | > 10
CCCCCC[C@@H](C)/C=C(C)/C=C/C(N)=O [GYMNAMIDE] | > 10
O=c1[nH]cc(F)c(=O)[nH]1 [FLUOROURACIL] | 0.073 (≈ 0.561 µM)
CCCCCC[C@@H](C)/C=C(C)/C=C/C(=O)N[C@H]1C[C@]2(O)[C@H]3O[C@H]3C(=O)[C@](Cl)([C@H]1O)[C@H]2OC [GYMNASTATIN G] | 0.03 (≈ 0.0638 µM)
CCCCCC[C@@H](C)/C=C(C)/C=C/C(=O)N[C@H]1C[C@]2(O)C=C(Cl)C(=O)[C@@](Cl)([C@H]2OC)[C@H]1O [GYMNASTATIN F] | 0.13 (≈ 0.266 µM)
